According to ChEMBL document CHEMBL4725300, “Structure optimization of positive allosteric modulators of GABA receptors led to the unexpected discovery of antagonists/potential negative allosteric modulators” (Bioorg Med Chem Lett, 2020):

How the values were obtained:
Assay type in all cases: cell membranes
Rattus norvegicus [1] = species: Rattus norvegicus; test: Negative allosteric modulation of GABAB receptor in Sprague-Dawley rat brain cortex membrane assessed as decrease in [35S]GTPgammaS binding for 30 mins; details: Cerebral cortex, filed as negative allosteric modulator
Rattus norvegicus [2] = species: Rattus norvegicus; test: Antagonist activity at GABAB receptor in Sprague-Dawley rat brain cortex membrane assessed as decrease in 10 uM GABA-stimulated [35S]GTPgammaS binding at 25 uM incubated for 30 mins relative to GABA; set-up: scale not given: the % may be the effect or the level left; details: Cerebral cortex, filed as antagonist
Rattus norvegicus [3] = species: Rattus norvegicus; test: Negative allosteric modulation of GABAB receptor in Sprague-Dawley rat brain cortex membrane assessed as decrease in [35S]GTPgammaS binding at 25 uM incubated for 30 mins relative to control; set-up: scale not given: the % may be the effect or the level left; details: Cerebral cortex, filed as negative allosteric modulator
Rattus norvegicus [4] = species: Rattus norvegicus; test: Antagonist activity at GABAB receptor in Sprague-Dawley rat brain cortex membrane assessed as decrease in 10 uM GABA-stimulated [35S]GTPgammaS binding at 2.5 uM incubated for 30 mins relative to GABA; set-up: scale not given: the % may be the effect or the level left; details: Cerebral cortex, filed as antagonist
Rattus norvegicus [5] = species: Rattus norvegicus; test: Negative allosteric modulation of GABAB receptor in Sprague-Dawley rat brain cortex membrane assessed as decrease in [35S]GTPgammaS binding at 2.5 uM incubated for 30 mins relative to control; set-up: scale not given: the % may be the effect or the level left; details: Cerebral cortex, filed as negative allosteric modulator
Rattus norvegicus [6] = species: Rattus norvegicus; test: Antagonist activity at GABAB receptor in Sprague-Dawley rat brain cortex membrane assessed as decrease in 10 uM GABA-stimulated [35S]GTPgammaS binding incubated for 30 mins; details: Cerebral cortex, filed as antagonist
Rattus norvegicus [7] = species: Rattus norvegicus; test: Agonist activity at GABAB receptor in Sprague-Dawley rat brain cortex membrane assessed as decrease in 10 uM GABA-stimulated [35S]GTPgammaS binding at 25 uM incubated for 30 mins; set-up: scale not given: the % may be the effect or the level left; details: Cerebral cortex, filed as agonist
Rattus norvegicus [8] = species: Rattus norvegicus; test: Agonist activity at GABAB receptor in Sprague-Dawley rat brain cortex membrane assessed as decrease in 10 uM GABA-stimulated [35S]GTPgammaS binding at 2.5 uM incubated for 30 mins; set-up: scale not given: the % may be the effect or the level left; details: Cerebral cortex, filed as agonist

CCOC(=O)c1cnc(-n2nc(C)cc2C)nc1NC1CCCC1
Activity (Rattus norvegicus [1]): Dose-dependent effect | Activity (Rattus norvegicus [2]): 40.8% | Activity (Rattus norvegicus [3]): 44.7% | Activity (Rattus norvegicus [4]): 14.4% | Activity (Rattus norvegicus [5]): 18.3% | Activity (Rattus norvegicus [6]): Dose-dependent effect

O=c1cc(O)nc(-c2ccccc2)n1Cc1ccccc1
Activity (Rattus norvegicus [2]): 12.4% | Activity (Rattus norvegicus [3]): 14% | Activity (Rattus norvegicus [4]): 0.9% | Activity (Rattus norvegicus [5]): 2.4%

CC(C)c1ccc2c(c1)c(O)c(C(C)C)c(=O)n2CC(C)(C)C
Activity (Rattus norvegicus [1]): Dose-dependent effect | Activity (Rattus norvegicus [7]): 2.6% | Activity (Rattus norvegicus [3]): 13.8% | Activity (Rattus norvegicus [4]): 2% | Activity (Rattus norvegicus [5]): 3.2%

Cn1c(Sc2ccccc2)nc(-c2ccccc2)cc1=O
Activity (Rattus norvegicus [1]): Dose-dependent effect | Activity (Rattus norvegicus [2]): 4.7% | Activity (Rattus norvegicus [3]): 9.7% | Activity (Rattus norvegicus [4]): 1.6% | Activity (Rattus norvegicus [5]): 4.7%

Cn1c(Sc2ccc(Cl)cc2)nc(-c2ccc(C(C)(C)C)cc2)cc1=O
Activity (Rattus norvegicus [1]): Dose-dependent effect | Activity (Rattus norvegicus [2]): 3.1% | Activity (Rattus norvegicus [3]): 9.7% | Activity (Rattus norvegicus [4]): 8.2% | Activity (Rattus norvegicus [5]): 4%

O=c1cc(-c2ccccc2)nc(Sc2ccc(Cl)cc2)[nH]1
Activity (Rattus norvegicus [1]): Dose-dependent effect | Activity (Rattus norvegicus [2]): 7.4% | Activity (Rattus norvegicus [3]): 14.7% | Activity (Rattus norvegicus [4]): 4.9% | Activity (Rattus norvegicus [5]): 8.7%

CCOC(=O)c1cnc(SC)nc1NC1CCCC1
Activity (Rattus norvegicus [1]): Dose-dependent effect | Activity (Rattus norvegicus [2]): 5.7% | Activity (Rattus norvegicus [3]): 29.3% | Activity (Rattus norvegicus [4]): 10.3% | Activity (Rattus norvegicus [5]): 25%

Cn1c(Sc2ccc(Cl)cc2)nc(-c2ccccc2)cc1=O
Activity (Rattus norvegicus [1]): Dose-dependent effect | Activity (Rattus norvegicus [2]): 34.1% | Activity (Rattus norvegicus [3]): 34.7% | Activity (Rattus norvegicus [4]): 10.9% | Activity (Rattus norvegicus [5]): 12.2% | Activity (Rattus norvegicus [6]): Dose-dependent effect

Cc1c(O)c2cc(C(C)(C)C)ccc2n(CC(C)C)c1=O
Activity (Rattus norvegicus [1]): Dose-dependent effect | Activity (Rattus norvegicus [2]): 23.6% | Activity (Rattus norvegicus [3]): 32.5% | Activity (Rattus norvegicus [4]): 8.4% | Activity (Rattus norvegicus [5]): 13.5% | Activity (Rattus norvegicus [6]): Dose-dependent effect

CC(C)c1c(O)nc(-c2ccccc2)n(Cc2ccccc2)c1=O
Activity (Rattus norvegicus [2]): 8% | Activity (Rattus norvegicus [3]): 13% | Activity (Rattus norvegicus [4]): 5.2% | Activity (Rattus norvegicus [5]): 2.3%

CC(C)c1c(O)c2cc(C(C)(C)C)ccc2n(CC(C)(C)C)c1=O
Activity (Rattus norvegicus [1]): Dose-dependent effect | Activity (Rattus norvegicus [2]): 6.3% | Activity (Rattus norvegicus [3]): 22.7% | Activity (Rattus norvegicus [8]): 1.7% | Activity (Rattus norvegicus [5]): 2%

CCCCCn1c(=O)c(C(C)C)c(O)c2cc(C(C)C)ccc21
Activity (Rattus norvegicus [1]): Dose-dependent effect | Activity (Rattus norvegicus [2]): 24.4% | Activity (Rattus norvegicus [3]): 37.7% | Activity (Rattus norvegicus [4]): 7% | Activity (Rattus norvegicus [5]): 9% | Activity (Rattus norvegicus [6]): Dose-dependent effect

CSc1ncc(-c2nc(C)no2)c(NC2CCCC2)n1
Activity (Rattus norvegicus [1]): Dose-dependent effect | Activity (Rattus norvegicus [2]): 19% | Activity (Rattus norvegicus [3]): 33.3% | Activity (Rattus norvegicus [4]): 10.3% | Activity (Rattus norvegicus [5]): 19% | Activity (Rattus norvegicus [6]): Dose-dependent effect

CC(C)Cn1c(=O)c(C(C)C)c(O)c2cc(C(C)(C)C)ccc21
Activity (Rattus norvegicus [1]): Dose-dependent effect | Activity (Rattus norvegicus [2]): 36.2% | Activity (Rattus norvegicus [3]): 50.7% | Activity (Rattus norvegicus [4]): 15.3% | Activity (Rattus norvegicus [5]): 23% | Activity (Rattus norvegicus [6]): Dose-dependent effect

Cc1c(O)nc(-c2ccccc2)n(Cc2ccccc2)c1=O
Activity (Rattus norvegicus [2]): 6.2% | Activity (Rattus norvegicus [3]): 8.3% | Activity (Rattus norvegicus [4]): 5.7% | Activity (Rattus norvegicus [5]): 3.3%

CC(C)Cn1c(=O)c(C(C)C)c(O)c2cc(C(C)C)ccc21
Activity (Rattus norvegicus [1]): Dose-dependent effect | Activity (Rattus norvegicus [2]): 41.5% | Activity (Rattus norvegicus [3]): 41.5% | Activity (Rattus norvegicus [4]): 13.5% | Activity (Rattus norvegicus [5]): 8.7% | Activity (Rattus norvegicus [6]): Dose-dependent effect

CCCn1c(=O)c(C)c(O)c2cc(OC)ccc21
Activity (Rattus norvegicus [1]): Dose-dependent effect | Activity (Rattus norvegicus [2]): 7.4% | Activity (Rattus norvegicus [3]): 10.5% | Activity (Rattus norvegicus [4]): 4.3% | Activity (Rattus norvegicus [5]): 5%

CSc1ncc(-c2nnc(C)o2)c(NC2CCCC2)n1
Activity (Rattus norvegicus [1]): Dose-dependent effect | Activity (Rattus norvegicus [2]): 19% | Activity (Rattus norvegicus [3]): 37.7% | Activity (Rattus norvegicus [4]): 17.1% | Activity (Rattus norvegicus [5]): 25.3%

O=c1cc(-c2ccccc2)nc(Sc2ccccc2)[nH]1
Activity (Rattus norvegicus [1]): Dose-dependent effect | Activity (Rattus norvegicus [2]): 6.1% | Activity (Rattus norvegicus [3]): 7.3% | Activity (Rattus norvegicus [4]): 4.7% | Activity (Rattus norvegicus [5]): 3.3%
